# From patent US8268847B2, “Therapeutic compositions comprising a specific endothelin receptor antagonist and a PDE5 inhibitor” (Actelion Pharmaceuticals, Ltd., priority 2006, dated 2012)
# “And” between values parts separate entries of the source, which are not always exact repeats. Equal entries are not always repeated.
# What was measured:
# [1] = system: spontaneously hypertensive rats (SHR); experiment: Spontaneously hypertensive rat model: blood pressure by telemetry, area between curves (ABC); assay type: in vivo; conditions: oral, 0 to 72 hours
# Method: The compounds were administered at least 2 weeks after telemetry system implantation. The compound of formula (I) and the compound having PDE5-inhibitory properties were prepared in 5% arabic gum and administered by oral gavage. The acute effects of the compound of formula (I), the compound having PDE5-inhibitory properties and their combination on blood pressure were measured by collecting data at 5-minute intervals up to 72 h after oral administration. Hourly means of blood pressure were calculated for each rat. Each rat served as its own control, by using the blood pressure data of the last 24 hours before drug administration. The two curves (blood pressure of the control period and blood pressure of the treatment period) were plotted together and the area between curves (ABC) from 0 to 72 hours was calculated. The higher the ABC, the stronger the effect of the item tested for lowering blood pressure.
# Spontaneously Hypertensive Rat Model
# The SHR rats were purchased from Harlan (Netherlands).
# [2] = system: Dahl salt-sensitive (Dahl-S) rats; experiment: Dahl salt-sensitive rat model: blood pressure by telemetry, area between curves (ABC); assay type: in vivo; conditions: oral, 0 to 72 hours
# Method: Dahl Salt-Sensitive Rat Model
# Dahl salt-sensitive (Dahl-S) were purchased from Harlan (Netherlands). The rats were housed by group during the acclimatization period and single-housed after implantation of the telemetry device. All animals were maintained under identical conditions and had free access to normal pelleted rat chow and water. Dahl salt-sensitive rats develop hypertension only upon exposure to salt intake. They were administered a high-salt (8%) chow diet (Purina series 5500). Five weeks after starting salt administration, a telemetry system was implanted under anaesthesia by inhalation of 2.5% isoflurane (in 70% O2+30% N2O). […]
# The compounds were administered at least 2 weeks after telemetry system implantation. […] The acute effects of the compound of formula (I), the compound having PDE5-inhibitory properties and their combination on blood pressure were measured by collecting data at 5-minute intervals up to 72 h after oral administration. Hourly means of blood pressure were calculated for each rat. […] The two curves (blood pressure of the control period and blood pressure of the treatment period) were plotted together and the area between curves (ABC) from 0 to 72 hours was calculated. […]
structure (smiles),measurement,setting,value
CCCNS(=O)(=O)Nc1ncnc(OCCOc2ncc(Br)cn2)c1-c1ccc(Br)cc1 [compound of formula (I)],"area between curves (ABC) of blood pressure, control period vs treatment period",[1]; 0.3 mg/kg,44 and 38
same,"area between curves (ABC) of blood pressure, control period vs treatment period","[2]; 0.3 mg/kg, higher ABC = stronger blood pressure lowering",256
CCCc1nn(C)c2c(=O)[nH]c(-c3cc(S(=O)(=O)N4CCN(C)CC4)ccc3OCC)nc12 [sildenafil],"area between curves (ABC) of blood pressure, control period vs treatment period",[1]; 30 mg/kg,229
CN1CC(=O)N2[C@H](c3ccc4c(c3)OCO4)c3[nH]c4ccccc4c3C[C@@H]2C1=O [tadalafil],"area between curves (ABC) of blood pressure, control period vs treatment period",[1]; 10 mg/kg,286
same,"area between curves (ABC) of blood pressure, control period vs treatment period",[2]; 10 mg/kg,310
